{"source": "PubChem BioAssay AID1963841", "about": "(Molecular Pharmacology Branch, DTP, NCI, 2024);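 note: spheroids exposed to compounds for seven days before readout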;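 for viability, T/C: 100% = DMSO vehicle control viability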", "system": "439559-082-T-J2-PDC spheroid viability", "experiment": "Anticancer human tumor 439559-082-T-J2-PDC patient-derived colon adenocarcinoma cell line growth inhibition [POLQ]", "details": "spheroids with HUVEC and MSC; for IC50: curve of first compound; for viability, T/C: stronger effect = lower value", "how_it_was_run": "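Patient-derived tumour cells were co-cultured with HUVEC and mesenchymal stem cells as multicellular spheroids at 37 °C. They were treated with POLQ inhibitors (novobiocin, ART-558, RP6685) alone or combined with other agents. Top concentrations were at or near clinical Cmax (otherwise 10 microM; SN-38 at 1 microM), decreasing in half-log steps.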", "key": {"[1]": {"details": "second compound 0.0316 µM, first compound 0.0316 µM"}, "[2]": {"details": "second compound 0.0316 µM, first compound 0.1 µM"}, "[3]": {"details": "second compound 0.0316 µM, first compound 0.316 µM"}, "[4]": {"details": "second compound 0.0316 µM, first compound 1 µM"}, "[5]": {"details": "second compound 0.1 µM, first compound 0.0316 µM"}, "[6]": {"details": "second compound 0.1 µM, first compound 0.1 µM"}, "[7]": {"details": "second compound 0.1 µM, first compound 0.316 µM"}, "[8]": {"details": "second compound 0.1 µM, first compound 1 µM"}, "[9]": {"details": "second compound 0.316 µM, first compound 0.0316 µM"}, "[10]": {"details": "second compound 0.316 µM, first compound 0.1 µM"}, "[11]": {"details": "second compound 0.316 µM, first compound 0.316 µM"}, "[12]": {"details": "second compound 0.316 µM, first compound 1 µM"}, "[13]": {"details": "second compound 1 µM, first compound 0.0316 µM"}, "[14]": {"details": "second compound 1 µM, first compound 0.1 µM"}, "[15]": {"details": "second compound 1 µM, first compound 0.316 µM"}, "[16]": {"details": "second compound 1 µM, first compound 1 µM"}, "[17]": {"details": "second compound 3.16 µM, first compound 0.0316 µM"}, "[18]": {"details": "second compound 3.16 µM, first compound 0.1 µM"}, "[19]": {"details": "second compound 3.16 µM, first compound 0.316 µM"}, "[20]": {"details": "second compound 3.16 µM, first compound 1 µM"}, "[21]": {"details": "second compound 10 µM, first compound 0.0316 µM"}, "[22]": {"details": "second compound 10 µM, first compound 0.1 µM"}, "[23]": {"details": "second compound 10 µM, first compound 0.316 µM"}, "[24]": {"details": "second compound 10 µM, first compound 1 µM"}}}
{"smiles": "COc1cccc2c1C(=O)c1c(O)c3c(c(O)c1C2=O)CC(O)(C(=O)CO)CC3OC1CC(N)C(O)C(C)O1", "note": "(centres undefined) + Cc1cccc(N(C)C(=O)C2C(O)CCN2c2nc(C)cc(C(F)(F)F)c2C#N)c1", "values": [{"measurement": "IC50", "setting": "second compound 0.0316 µM", "result": "> 10", "unit": "µM"}, {"measurement": "IC50", "setting": "second compound 0.1 µM", "result": "> 10", "unit": "µM"}, {"measurement": "IC50", "setting": "second compound 0.316 µM", "result": "> 10", "unit": "µM"}, {"measurement": "IC50", "setting": "second compound 1 µM", "result": 9.22, "unit": "µM"}, {"measurement": "IC50", "setting": "second compound 3.16 µM", "result": 9.74, "unit": "µM"}, {"measurement": "IC50", "setting": "second compound 10 µM", "result": "> 10", "unit": "µM"}, {"measurement": "viability, T/C", "setting": "[1]", "result": 99, "unit": "%"}, {"measurement": "viability, T/C", "setting": "[2]", "result": 87.9, "unit": "%"}, {"measurement": "viability, T/C", "setting": "[3]", "result": 79.6, "unit": "%"}, {"measurement": "viability, T/C", "setting": "[4]", "result": 70.5, "unit": "%"}, {"measurement": "viability, T/C", "setting": "second compound 0.0316 µM, first compound 3.16 µM", "result": 60.8, "unit": "%"}, {"measurement": "viability, T/C", "setting": "second compound 0.0316 µM, first compound 10 µM", "result": 53.2, "unit": "%"}, {"measurement": "viability, T/C", "setting": "[5]", "result": 96.2, "unit": "%"}, {"measurement": "viability, T/C", "setting": "[6]", "result": 92.5, "unit": "%"}, {"measurement": "viability, T/C", "setting": "[7]", "result": 80.7, "unit": "%"}, {"measurement": "viability, T/C", "setting": "[8]", "result": 70.2, "unit": "%"}, {"measurement": "viability, T/C", "setting": "second compound 0.1 µM, first compound 3.16 µM", "result": 62.9, "unit": "%"}, {"measurement": "viability, T/C", "setting": "second compound 0.1 µM, first compound 10 µM", "result": 52.8, "unit": "%"}, {"measurement": "viability, T/C", "setting": "[9]", "result": 95.2, "unit": "%"}, {"measurement": "viability, T/C", "setting": "[10]", "result": 94.4, "unit": "%"}, {"measurement": "viability, T/C", "setting": "[11]", "result": 79.4, "unit": "%"}, {"measurement": "viability, T/C", "setting": "[12]", "result": 68.2, "unit": "%"}, {"measurement": "viability, T/C", "setting": "second compound 0.316 µM, first compound 3.16 µM", "result": 63, "unit": "%"}, {"measurement": "viability, T/C", "setting": "second compound 0.316 µM, first compound 10 µM", "result": 51.7, "unit": "%"}, {"measurement": "viability, T/C", "setting": "[13]", "result": 100, "unit": "%"}, {"measurement": "viability, T/C", "setting": "[14]", "result": 97.9, "unit": "%"}, {"measurement": "viability, T/C", "setting": "[15]", "result": 79.6, "unit": "%"}, {"measurement": "viability, T/C", "setting": "[16]", "result": 70.1, "unit": "%"}, {"measurement": "viability, T/C", "setting": "second compound 1 µM, first compound 3.16 µM", "result": 62.8, "unit": "%"}, {"measurement": "viability, T/C", "setting": "second compound 1 µM, first compound 10 µM", "result": 48.2, "unit": "%"}, {"measurement": "viability, T/C", "setting": "[17]", "result": 96.7, "unit": "%"}, {"measurement": "viability, T/C", "setting": "[18]", "result": 86.1, "unit": "%"}, {"measurement": "viability, T/C", "setting": "[19]", "result": 81.2, "unit": "%"}, {"measurement": "viability, T/C", "setting": "[20]", "result": 70, "unit": "%"}, {"measurement": "viability, T/C", "setting": "second compound 3.16 µM, first compound 3.16 µM", "result": 56.3, "unit": "%"}, {"measurement": "viability, T/C", "setting": "second compound 3.16 µM, first compound 10 µM", "result": 50.6, "unit": "%"}, {"measurement": "viability, T/C", "setting": "[21]", "result": 96.2, "unit": "%"}, {"measurement": "viability, T/C", "setting": "[22]", "result": 81.4, "unit": "%"}, {"measurement": "viability, T/C", "setting": "[23]", "result": 80.1, "unit": "%"}, {"measurement": "viability, T/C", "setting": "[24]", "result": 68.2, "unit": "%"}, {"measurement": "viability, T/C", "setting": "second compound 10 µM, first compound 3.16 µM", "result": 63.9, "unit": "%"}, {"measurement": "viability, T/C", "setting": "second compound 10 µM, first compound 10 µM", "result": 48.8, "unit": "%"}]}
{"smiles": "C=CCn1c(=O)c2cnc(Nc3ccc(N4CCN(C)CC4)cc3)nc2n1-c1cccc(C(C)(C)O)n1", "note": "+ Cc1cccc(N(C)C(=O)C2C(O)CCN2c2nc(C)cc(C(F)(F)F)c2C#N)c1", "values": [{"measurement": "IC50", "setting": "second compound 0.0316 µM", "result": "> 1", "unit": "µM"}, {"measurement": "IC50", "setting": "second compound 0.1 µM", "result": "> 1", "unit": "µM"}, {"measurement": "IC50", "setting": "second compound 0.316 µM", "result": "> 1", "unit": "µM"}, {"measurement": "IC50", "setting": "second compound 1 µM", "result": "> 1", "unit": "µM"}, {"measurement": "IC50", "setting": "second compound 3.16 µM", "result": "> 1", "unit": "µM"}, {"measurement": "IC50", "setting": "second compound 10 µM", "result": "> 1", "unit": "µM"}, {"measurement": "viability, T/C", "setting": "second compound 0.0316 µM, first compound 0.00316 µM", "result": 104, "unit": "%"}, {"measurement": "viability, T/C", "setting": "second compound 0.0316 µM, first compound 0.01 µM", "result": 96.8, "unit": "%"}, {"measurement": "viability, T/C", "setting": "[1]", "result": 93.3, "unit": "%"}, {"measurement": "viability, T/C", "setting": "[2]", "result": 92.1, "unit": "%"}, {"measurement": "viability, T/C", "setting": "[3]", "result": 83.7, "unit": "%"}, {"measurement": "viability, T/C", "setting": "[4]", "result": 78.9, "unit": "%"}, {"measurement": "viability, T/C", "setting": "second compound 0.1 µM, first compound 0.00316 µM", "result": 98, "unit": "%"}, {"measurement": "viability, T/C", "setting": "second compound 0.1 µM, first compound 0.01 µM", "result": 103, "unit": "%"}, {"measurement": "viability, T/C", "setting": "[5]", "result": 107, "unit": "%"}, {"measurement": "viability, T/C", "setting": "[6]", "result": 88.3, "unit": "%"}, {"measurement": "viability, T/C", "setting": "[7]", "result": 93.1, "unit": "%"}, {"measurement": "viability, T/C", "setting": "[8]", "result": 84.1, "unit": "%"}, {"measurement": "viability, T/C", "setting": "second compound 0.316 µM, first compound 0.00316 µM", "result": 104, "unit": "%"}, {"measurement": "viability, T/C", "setting": "second compound 0.316 µM, first compound 0.01 µM", "result": 104, "unit": "%"}, {"measurement": "viability, T/C", "setting": "[9]", "result": 85.8, "unit": "%"}, {"measurement": "viability, T/C", "setting": "[10]", "result": 95.3, "unit": "%"}, {"measurement": "viability, T/C", "setting": "[11]", "result": 100, "unit": "%"}, {"measurement": "viability, T/C", "setting": "[12]", "result": 71, "unit": "%"}, {"measurement": "viability, T/C", "setting": "second compound 1 µM, first compound 0.00316 µM", "result": 86.3, "unit": "%"}, {"measurement": "viability, T/C", "setting": "second compound 1 µM, first compound 0.01 µM", "result": 99.8, "unit": "%"}, {"measurement": "viability, T/C", "setting": "[13]", "result": 102, "unit": "%"}, {"measurement": "viability, T/C", "setting": "[14]", "result": 102, "unit": "%"}, {"measurement": "viability, T/C", "setting": "[15]", "result": 93.4, "unit": "%"}, {"measurement": "viability, T/C", "setting": "[16]", "result": 75.3, "unit": "%"}, {"measurement": "viability, T/C", "setting": "second compound 3.16 µM, first compound 0.00316 µM", "result": 94.6, "unit": "%"}, {"measurement": "viability, T/C", "setting": "second compound 3.16 µM, first compound 0.01 µM", "result": 105, "unit": "%"}, {"measurement": "viability, T/C", "setting": "[17]", "result": 91.7, "unit": "%"}, {"measurement": "viability, T/C", "setting": "[18]", "result": 95.4, "unit": "%"}, {"measurement": "viability, T/C", "setting": "[19]", "result": 96.5, "unit": "%"}, {"measurement": "viability, T/C", "setting": "[20]", "result": 76.8, "unit": "%"}, {"measurement": "viability, T/C", "setting": "second compound 10 µM, first compound 0.00316 µM", "result": 100, "unit": "%"}, {"measurement": "viability, T/C", "setting": "second compound 10 µM, first compound 0.01 µM", "result": 90.6, "unit": "%"}, {"measurement": "viability, T/C", "setting": "[21]", "result": 99.3, "unit": "%"}, {"measurement": "viability, T/C", "setting": "[22]", "result": 97.8, "unit": "%"}, {"measurement": "viability, T/C", "setting": "[23]", "result": 93.5, "unit": "%"}, {"measurement": "viability, T/C", "setting": "[24]", "result": 74.3, "unit": "%"}]}
